Activity calls are given as the source filed them.
Tests used:
[1] = molecular target: T1, Sentrin-specific protease 6 (Homo sapiens, UniProt Q9GZR1); assay type: functional;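 note: Luminescence-based dose-response confirmatory assay of SENP6 inhibition, following up an ultra-high-throughput screen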
T1 sequence (Q9GZR1 whole entry): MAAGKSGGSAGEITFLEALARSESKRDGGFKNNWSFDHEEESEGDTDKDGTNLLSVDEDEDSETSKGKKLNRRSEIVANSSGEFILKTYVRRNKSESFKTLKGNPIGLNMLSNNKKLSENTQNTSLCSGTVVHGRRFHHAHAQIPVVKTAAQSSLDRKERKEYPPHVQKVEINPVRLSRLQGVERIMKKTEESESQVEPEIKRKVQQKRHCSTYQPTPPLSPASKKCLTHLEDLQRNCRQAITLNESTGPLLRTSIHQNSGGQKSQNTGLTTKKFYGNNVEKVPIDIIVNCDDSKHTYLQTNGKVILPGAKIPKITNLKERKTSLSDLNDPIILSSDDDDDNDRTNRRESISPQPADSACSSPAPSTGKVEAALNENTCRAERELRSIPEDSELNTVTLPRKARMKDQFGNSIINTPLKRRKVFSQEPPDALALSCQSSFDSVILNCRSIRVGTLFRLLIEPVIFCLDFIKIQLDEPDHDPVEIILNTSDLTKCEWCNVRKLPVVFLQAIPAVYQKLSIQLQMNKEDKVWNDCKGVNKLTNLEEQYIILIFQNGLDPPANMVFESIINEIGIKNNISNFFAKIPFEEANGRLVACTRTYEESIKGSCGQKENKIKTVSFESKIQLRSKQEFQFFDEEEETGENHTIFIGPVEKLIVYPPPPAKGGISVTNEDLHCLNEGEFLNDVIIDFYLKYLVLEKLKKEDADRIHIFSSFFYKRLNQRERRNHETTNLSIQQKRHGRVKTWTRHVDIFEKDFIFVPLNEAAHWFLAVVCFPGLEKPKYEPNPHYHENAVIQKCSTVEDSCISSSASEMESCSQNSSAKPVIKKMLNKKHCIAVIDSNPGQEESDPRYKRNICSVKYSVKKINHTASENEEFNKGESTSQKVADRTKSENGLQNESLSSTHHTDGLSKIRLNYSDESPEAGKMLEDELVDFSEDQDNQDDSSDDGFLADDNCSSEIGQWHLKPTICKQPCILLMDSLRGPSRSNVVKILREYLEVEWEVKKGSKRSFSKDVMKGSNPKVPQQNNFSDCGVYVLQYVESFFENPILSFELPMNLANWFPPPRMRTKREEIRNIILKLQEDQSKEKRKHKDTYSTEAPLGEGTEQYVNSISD

[2] = viability loss of HPDE-C7K cells – cell-based, fluorescence, HTS, primary screen (AID 431); assay type: functional; details: Homo sapiens
[3] = HPDE-C7 pancreatic duct cell viability loss – fluorescence, HTS (AID 430); assay type: functional, cell-based; details: Homo sapiens
[4] = molecular target: T2, Caspase-3 (Homo sapiens, UniProt P42574); assay type: functional;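 note: Dose-response selectivity test against caspase-3 for candidate inhibitors of sentrin-specific proteases (SENPs)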
T2 sequence (P42574 whole entry): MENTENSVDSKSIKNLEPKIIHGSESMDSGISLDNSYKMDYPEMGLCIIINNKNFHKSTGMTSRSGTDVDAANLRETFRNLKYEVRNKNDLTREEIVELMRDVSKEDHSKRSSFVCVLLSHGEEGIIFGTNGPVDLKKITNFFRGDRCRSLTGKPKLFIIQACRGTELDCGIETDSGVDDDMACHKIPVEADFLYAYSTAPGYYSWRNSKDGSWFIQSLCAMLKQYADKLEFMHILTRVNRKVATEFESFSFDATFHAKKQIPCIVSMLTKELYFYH

[5] = molecular target: T3, Tyrosine-protein phosphatase non-receptor type 7 (Homo sapiens, UniProt P35236); assay: HTS HePTP Fluorescent Assay using OMFP substrate for In Vitro dose response studies. [Related pubchem assays (depositor defined):AID1059, AID1077, AID1784, AID2068, AID2085, AID435032, AID521]; assay type: functional
T3 sequence (P35236 whole entry): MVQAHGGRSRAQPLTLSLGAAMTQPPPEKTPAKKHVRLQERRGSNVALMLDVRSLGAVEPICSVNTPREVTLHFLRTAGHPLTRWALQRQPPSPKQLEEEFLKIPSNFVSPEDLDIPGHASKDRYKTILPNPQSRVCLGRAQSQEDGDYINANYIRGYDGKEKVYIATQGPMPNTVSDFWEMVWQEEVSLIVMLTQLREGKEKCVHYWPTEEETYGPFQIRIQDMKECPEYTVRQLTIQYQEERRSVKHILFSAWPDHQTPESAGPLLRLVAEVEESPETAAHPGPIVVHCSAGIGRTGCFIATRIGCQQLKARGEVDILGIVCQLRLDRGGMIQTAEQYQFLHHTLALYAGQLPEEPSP

[6] = molecular target: Voltage-gated N-type calcium channel alpha-1B subunit/Amyloid beta A4 precursor protein-binding family A member 1 (Homo sapiens, UniProt Q00975+Q02410); assay type: protein assay
Chain of Voltage-gated N-type calcium channel alpha-1B subunit/Amyloid beta A4 precursor protein-binding family A member 1 (Q00975 whole entry): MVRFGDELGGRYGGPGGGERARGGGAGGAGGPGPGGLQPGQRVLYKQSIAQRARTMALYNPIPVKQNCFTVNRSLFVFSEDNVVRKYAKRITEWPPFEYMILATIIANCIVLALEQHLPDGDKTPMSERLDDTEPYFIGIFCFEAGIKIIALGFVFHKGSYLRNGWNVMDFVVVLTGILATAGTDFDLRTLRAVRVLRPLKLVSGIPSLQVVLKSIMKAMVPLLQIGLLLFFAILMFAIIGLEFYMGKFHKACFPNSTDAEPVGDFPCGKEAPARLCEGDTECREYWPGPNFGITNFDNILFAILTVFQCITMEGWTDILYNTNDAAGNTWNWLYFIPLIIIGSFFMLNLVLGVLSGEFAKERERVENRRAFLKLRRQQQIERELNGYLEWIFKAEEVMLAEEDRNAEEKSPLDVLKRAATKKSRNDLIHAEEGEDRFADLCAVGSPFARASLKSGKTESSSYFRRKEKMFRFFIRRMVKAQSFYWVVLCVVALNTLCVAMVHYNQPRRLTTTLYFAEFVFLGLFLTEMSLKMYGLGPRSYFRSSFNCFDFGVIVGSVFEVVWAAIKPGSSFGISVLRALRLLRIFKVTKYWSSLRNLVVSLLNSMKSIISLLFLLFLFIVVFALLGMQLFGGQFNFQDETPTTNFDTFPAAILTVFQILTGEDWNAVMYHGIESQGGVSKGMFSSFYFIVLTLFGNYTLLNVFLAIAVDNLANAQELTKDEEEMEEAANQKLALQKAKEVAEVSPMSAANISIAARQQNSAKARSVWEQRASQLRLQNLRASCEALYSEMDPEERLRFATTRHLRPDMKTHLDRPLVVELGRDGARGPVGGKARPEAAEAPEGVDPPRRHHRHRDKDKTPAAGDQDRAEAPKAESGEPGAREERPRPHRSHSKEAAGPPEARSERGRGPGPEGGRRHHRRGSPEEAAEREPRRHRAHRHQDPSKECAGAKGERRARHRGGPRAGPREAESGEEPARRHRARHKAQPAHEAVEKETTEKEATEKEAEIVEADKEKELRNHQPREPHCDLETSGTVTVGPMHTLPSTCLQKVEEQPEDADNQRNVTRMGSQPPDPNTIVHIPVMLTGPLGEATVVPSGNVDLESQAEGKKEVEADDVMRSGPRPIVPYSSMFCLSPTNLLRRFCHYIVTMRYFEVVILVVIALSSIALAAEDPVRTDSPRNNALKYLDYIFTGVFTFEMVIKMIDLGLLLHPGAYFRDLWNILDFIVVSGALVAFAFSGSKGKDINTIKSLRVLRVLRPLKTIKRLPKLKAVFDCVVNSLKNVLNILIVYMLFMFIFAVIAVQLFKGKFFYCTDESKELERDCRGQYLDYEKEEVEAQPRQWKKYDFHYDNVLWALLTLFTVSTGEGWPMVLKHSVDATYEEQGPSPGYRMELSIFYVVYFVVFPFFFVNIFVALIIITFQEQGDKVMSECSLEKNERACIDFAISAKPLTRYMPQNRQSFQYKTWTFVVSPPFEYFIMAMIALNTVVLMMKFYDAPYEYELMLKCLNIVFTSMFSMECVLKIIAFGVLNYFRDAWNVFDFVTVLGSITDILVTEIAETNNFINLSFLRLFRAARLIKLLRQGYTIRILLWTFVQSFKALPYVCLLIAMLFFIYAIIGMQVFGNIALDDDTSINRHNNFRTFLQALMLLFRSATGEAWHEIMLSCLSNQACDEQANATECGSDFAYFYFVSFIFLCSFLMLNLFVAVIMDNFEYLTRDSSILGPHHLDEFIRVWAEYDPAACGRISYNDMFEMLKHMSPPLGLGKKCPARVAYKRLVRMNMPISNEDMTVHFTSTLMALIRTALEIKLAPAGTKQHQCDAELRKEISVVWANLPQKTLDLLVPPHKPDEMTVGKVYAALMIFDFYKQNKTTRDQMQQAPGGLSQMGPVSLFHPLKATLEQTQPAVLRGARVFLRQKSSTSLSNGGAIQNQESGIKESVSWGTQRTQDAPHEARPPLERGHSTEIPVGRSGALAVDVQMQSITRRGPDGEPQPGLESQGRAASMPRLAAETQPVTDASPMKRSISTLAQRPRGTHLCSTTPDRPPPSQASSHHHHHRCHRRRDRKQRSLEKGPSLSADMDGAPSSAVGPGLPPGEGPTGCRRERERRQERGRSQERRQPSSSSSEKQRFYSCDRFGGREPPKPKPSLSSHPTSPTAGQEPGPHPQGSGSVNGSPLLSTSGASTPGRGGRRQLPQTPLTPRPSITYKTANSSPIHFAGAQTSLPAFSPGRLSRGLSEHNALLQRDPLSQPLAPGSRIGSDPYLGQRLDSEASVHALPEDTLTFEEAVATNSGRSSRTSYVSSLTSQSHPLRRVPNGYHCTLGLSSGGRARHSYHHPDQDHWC
Chain of Voltage-gated N-type calcium channel alpha-1B subunit/Amyloid beta A4 precursor protein-binding family A member 1 (Q02410 whole entry): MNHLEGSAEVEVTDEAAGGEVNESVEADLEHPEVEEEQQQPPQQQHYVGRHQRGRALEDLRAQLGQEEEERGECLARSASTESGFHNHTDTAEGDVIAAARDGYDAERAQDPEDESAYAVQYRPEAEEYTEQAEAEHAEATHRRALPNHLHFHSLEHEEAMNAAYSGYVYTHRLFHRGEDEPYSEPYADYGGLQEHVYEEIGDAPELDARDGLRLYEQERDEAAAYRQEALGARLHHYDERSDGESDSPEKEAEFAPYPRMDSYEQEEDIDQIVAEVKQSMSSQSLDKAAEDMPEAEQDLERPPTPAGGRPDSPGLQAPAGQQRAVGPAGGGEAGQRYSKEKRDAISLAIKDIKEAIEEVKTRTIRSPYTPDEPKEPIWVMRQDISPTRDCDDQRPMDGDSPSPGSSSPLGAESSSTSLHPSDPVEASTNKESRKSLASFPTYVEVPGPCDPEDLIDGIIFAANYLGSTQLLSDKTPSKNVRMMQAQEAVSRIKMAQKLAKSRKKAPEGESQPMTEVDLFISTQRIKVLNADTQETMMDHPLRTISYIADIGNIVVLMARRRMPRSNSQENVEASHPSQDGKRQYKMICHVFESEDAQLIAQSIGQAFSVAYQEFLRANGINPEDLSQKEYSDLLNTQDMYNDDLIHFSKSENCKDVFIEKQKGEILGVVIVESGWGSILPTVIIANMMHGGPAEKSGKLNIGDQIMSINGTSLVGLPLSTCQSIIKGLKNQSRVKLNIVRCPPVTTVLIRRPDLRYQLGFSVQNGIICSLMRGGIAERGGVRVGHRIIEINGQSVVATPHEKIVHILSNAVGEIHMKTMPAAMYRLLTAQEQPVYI

COc1ccc(Nc2ccc3c(c2)=NC2(CCCCC2)[N+]=3[O-])cc1
active: IC50 [1] 6.28 µM | EC50 [2] 8.16 µM | EC50 [3] 6.89 µM | IC50 [4] 88.4 µM

COc1ccc(/C=C2\SC(=S)N(CCC(=O)Nc3ccc(C(=O)O)cc3)C2=O)cc1OC
active: IC50 [5] 5.64 µM | IC50 [6] 7.89 µM
